According to patent US8722897B2, “Metal complexes of thiourea and derivatives as metal delivering anti-cancer and anti-inflammatory agents” (priority 2010, dated 2014):

Columns and labels:
[1] = biological target: T1, NADPH-reduced TrxR1 (Rattus norvegicus, UniProt O89049); assay: BIAM labeling of cysteine and selenocysteine residues of TrxR1; format: biochemical; conditions: TrxR 0.1 μM, compound 4 μM, pH 8.5 and pH 6.5
T1 sequence (O89049 1-499): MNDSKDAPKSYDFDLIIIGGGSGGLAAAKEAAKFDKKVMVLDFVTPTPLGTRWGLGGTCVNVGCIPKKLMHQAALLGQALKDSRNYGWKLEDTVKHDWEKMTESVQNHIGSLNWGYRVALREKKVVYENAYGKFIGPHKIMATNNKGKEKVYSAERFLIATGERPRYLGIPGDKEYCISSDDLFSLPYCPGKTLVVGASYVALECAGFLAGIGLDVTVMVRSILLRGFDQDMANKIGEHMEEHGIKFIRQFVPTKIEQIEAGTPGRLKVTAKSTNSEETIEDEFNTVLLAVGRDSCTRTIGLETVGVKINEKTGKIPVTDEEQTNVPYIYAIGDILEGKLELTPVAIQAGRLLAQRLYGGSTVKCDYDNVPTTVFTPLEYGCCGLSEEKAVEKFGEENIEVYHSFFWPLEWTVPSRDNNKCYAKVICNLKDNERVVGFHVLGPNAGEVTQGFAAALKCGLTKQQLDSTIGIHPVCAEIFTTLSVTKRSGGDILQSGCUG
Text: The reduced TrxR has free —SH (Cys496) and —SeH (Sec497) groups at the C-terminal active site, making it vulnerable to be attacked by Au(I). ^20, 22, 23 These redox active sites can be probed by biotinylated iodoacetamide (BIAM), which alkylates the free —SH and —SeH groups; and the resulting adduct can be detected by western blot experiment using streptavidin-linked horseradish peroxidase (FIG. 10). ^26, 27 It has been shown that these residues can be selectively alkylated by BIAM by adjusting the pH. At pH 8.5, both —SH and —SeH are alkylated. At pH 6.5, only the —SeH is alkylated owing to the low pKa value for selenocysteine, and thus a weaker streptavidin signal was obtained in which case. […] It is highly likely that the formation of the tight enzyme-inhibitor complex (EI*) involves covalent modification of the redox active selenocysteine and cysteine residue via the Au(I) complex. ^28
NADPH-reduced TrxR1 (0.1 μM) and 1 (4 μM) were incubated in reaction buffer (100 mM phosphate buffer, pH 7.4, 1 mM EDTA) at room temperature for 1 h. […] The separated proteins were transferred to nitrocellulose membrane and the BIAM labeled proteins were detected with horseradish peroxidase conjugated streptavidin and enhanced chemiluminescence detection.

[2] = biological target: T2, Glutathione reductase (GR) (Homo sapiens, UniProt P00390); assay: Cellular glutathione reductase activity of treated HeLa cells; format: cell-based; conditions: one-hour treatment
T2 construct: endogenous in cells; host or cells: HeLa
T2 sequence (P00390 44-522): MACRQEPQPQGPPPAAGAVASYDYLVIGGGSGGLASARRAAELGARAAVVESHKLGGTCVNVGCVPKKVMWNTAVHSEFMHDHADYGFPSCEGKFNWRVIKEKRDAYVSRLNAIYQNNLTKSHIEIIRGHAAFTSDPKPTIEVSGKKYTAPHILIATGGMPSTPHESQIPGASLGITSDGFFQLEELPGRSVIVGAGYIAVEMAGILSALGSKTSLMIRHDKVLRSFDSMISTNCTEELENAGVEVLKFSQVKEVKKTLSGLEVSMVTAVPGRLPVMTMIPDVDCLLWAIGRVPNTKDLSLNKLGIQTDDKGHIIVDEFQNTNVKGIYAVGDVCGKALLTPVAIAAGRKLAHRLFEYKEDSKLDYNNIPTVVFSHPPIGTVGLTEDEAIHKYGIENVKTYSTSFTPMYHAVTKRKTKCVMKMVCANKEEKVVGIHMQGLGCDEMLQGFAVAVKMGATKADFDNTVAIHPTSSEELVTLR
Protocol: Cells were seeded at 2×10^5/well in 6-well plates and incubated for 24 hours. The metal thiourea compounds (10^−9 to 10^−4 M) were serially diluted and added to the cells (final DMSO concentrations≦1%). After an one-hour incubation, cells were washed thrice with phosphate buffered saline and 100 μL ice-cold lysis buffer (50 mM phosphate buffer, pH 7.4, 1 mM EDTA, 0.1% Triton-X 100) were added to the cell layer. Cell lysis was carried on ice for 5 minutes and the cell lysates were collected and stored at −80° C. or assayed immediately.
Cell lysates (10 μg proteins) were added to a mixture containing 100 mM phosphate, pH 7.4, 1 mM EDTA, 1 mM GSSG and 0.2 mM NADPH. Reaction was initiated by adding DTNB (3 mM final) and the increases in O.D.412 nm were measured for 10 min. GR activities were determined by subtracting the increases in O.D.412 nm in the absence of GSSG.

[3] = Cytotoxicity assay (MTT), SUNE1; conditions: human, SUNE1 cells
Protocol: (§1) Cells were seeded in a 96-well flat-bottomed microplate at 20,000 cells/well in 150 μL of growth medium solution. The compounds were dissolved in dimethyl sulfoxide. Serial dilution of each complex was added to each well with final concentration of DMSO≦1%. The microplate was incubated at 37° C., 5% CO2, 95% air in a humidified incubator for 72 h. After incubation, 10 μL MTT reagent (5 mg/mL) was added to each well. The microplate was re-incubated at 37° C. in 5% CO2 for 4 h. Solubilization solution (10% SDS in 0.01 M HCl) (100 μL) was added to each well. The microplate was left in an incubator for 24 h. Absorbances at 550 nm were measured by a microplate reader.

[4] = biological target: T3, TrxR1 (Rattus norvegicus, UniProt O89049); assay: In vitro TrxR enzyme assay, with or without NADPH pre-reduction; format: biochemical
T3 sequence (O89049 1-499): T1 sequence (O89049 1-499)
Protocol: A plot of the kapp against the inhibitor concentrations followed a hyperbolic function (FIG. 8B). This is indicative of a two-step, tight-binding inhibition mechanism: […] DTNB (3 mM) and NADPH (0.2 mM) was then added. The TrxR1 activities were determined as the increases in O.D.412 nm over 10 min.

[5] = Cytotoxicity assay (MTT), HepG2; conditions: human, HepG2 cells
Protocol: as §1

With `COc1ccc(N2CCN(c3ccc(OC)cc3)C2=[S+][Au-][S+]=C2N(c3ccc(OC)cc3)CCN2c2ccc(OC)cc2)cc1` [complex 1, [Au(TU)2]Cl] the “BIAM labeling of TrxR” value [1] was “inhibited”, the “effect on cellular GR activity” value [2] was “not affected” and the IC50 at 72 h [3] was 10.8 ± 0.2 µM. For the same compound, the “concentration for half maximal inhibition of TrxR” value ([4]; TrxR 1 nM) was “approximately equal molar concentration”, the “inhibition of NADPH reduced TrxR compared with oxidized TrxR” value ([4]; with or without 0.2 mM NADPH pre-reduction) was “much more efficiently inhibited” and the IC50 at 72 h [5] was 17.4 ± 1 µM.
